From publication PMC3914206

How the values were obtained:
Format in all cases: binding
panel of 442 kinases [1] = target: T1, panel of 442 kinases (Homo sapiens, UniProt P36507); conditions: Compound Concentration 10 µM
T1 construct: purchased KINOMEscan
From the text: (§1) We assessed the selectivity of members of this scaffold using the KINOMEscan methodology across a near comprehensive panel of 442 kinases [[18,27]].

panel of 442 kinases [2] = target: T2, panel of 442 kinases (Homo sapiens, UniProt Q00532); conditions: Compound Concentration 10 µM
T2 construct: purchased KINOMEscan
From the text: as §1

panel of 442 kinases [3] = target: T3, panel of 442 kinases (Homo sapiens, UniProt Q7L7X3); conditions: kinase TAOK1; compound concentration 10 µM
T3 construct: purchased KINOMEscan
T3 sequence (Q7L7X3 1-1001): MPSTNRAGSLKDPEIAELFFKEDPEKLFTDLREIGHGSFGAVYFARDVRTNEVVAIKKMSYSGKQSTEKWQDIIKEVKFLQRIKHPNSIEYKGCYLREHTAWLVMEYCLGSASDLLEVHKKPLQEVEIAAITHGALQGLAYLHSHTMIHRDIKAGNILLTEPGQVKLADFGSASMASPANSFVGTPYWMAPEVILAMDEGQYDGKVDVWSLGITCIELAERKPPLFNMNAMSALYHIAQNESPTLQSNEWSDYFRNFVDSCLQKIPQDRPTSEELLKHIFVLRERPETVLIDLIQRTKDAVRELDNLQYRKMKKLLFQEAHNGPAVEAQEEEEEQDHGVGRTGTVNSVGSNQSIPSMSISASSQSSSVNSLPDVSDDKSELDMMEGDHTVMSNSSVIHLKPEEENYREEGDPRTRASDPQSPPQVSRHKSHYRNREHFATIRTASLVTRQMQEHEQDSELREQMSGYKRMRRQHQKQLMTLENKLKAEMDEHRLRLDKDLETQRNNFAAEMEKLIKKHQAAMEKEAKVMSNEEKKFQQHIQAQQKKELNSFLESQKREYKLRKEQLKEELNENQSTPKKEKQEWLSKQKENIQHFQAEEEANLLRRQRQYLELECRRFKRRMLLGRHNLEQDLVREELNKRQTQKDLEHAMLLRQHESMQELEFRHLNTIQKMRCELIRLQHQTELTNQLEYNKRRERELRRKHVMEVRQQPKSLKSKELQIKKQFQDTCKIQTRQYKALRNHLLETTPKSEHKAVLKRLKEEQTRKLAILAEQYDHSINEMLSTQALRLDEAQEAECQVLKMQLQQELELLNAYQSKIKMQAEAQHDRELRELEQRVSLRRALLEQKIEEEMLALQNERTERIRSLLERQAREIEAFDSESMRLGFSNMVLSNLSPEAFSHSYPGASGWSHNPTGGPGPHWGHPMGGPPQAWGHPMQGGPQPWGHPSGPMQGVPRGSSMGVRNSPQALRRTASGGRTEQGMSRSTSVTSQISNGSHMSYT
From the text: as §1

T2 sequence (Q00532 whole entry): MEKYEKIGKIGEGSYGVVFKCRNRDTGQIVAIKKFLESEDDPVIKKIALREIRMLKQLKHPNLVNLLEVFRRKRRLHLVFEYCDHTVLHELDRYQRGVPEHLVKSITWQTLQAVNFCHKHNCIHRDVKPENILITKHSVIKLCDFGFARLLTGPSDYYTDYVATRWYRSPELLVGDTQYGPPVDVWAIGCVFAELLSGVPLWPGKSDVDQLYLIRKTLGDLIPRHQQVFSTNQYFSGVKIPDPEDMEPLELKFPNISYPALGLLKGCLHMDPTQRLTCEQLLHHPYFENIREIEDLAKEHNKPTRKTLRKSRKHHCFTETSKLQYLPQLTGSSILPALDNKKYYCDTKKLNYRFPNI
T1 sequence (P36507 whole entry): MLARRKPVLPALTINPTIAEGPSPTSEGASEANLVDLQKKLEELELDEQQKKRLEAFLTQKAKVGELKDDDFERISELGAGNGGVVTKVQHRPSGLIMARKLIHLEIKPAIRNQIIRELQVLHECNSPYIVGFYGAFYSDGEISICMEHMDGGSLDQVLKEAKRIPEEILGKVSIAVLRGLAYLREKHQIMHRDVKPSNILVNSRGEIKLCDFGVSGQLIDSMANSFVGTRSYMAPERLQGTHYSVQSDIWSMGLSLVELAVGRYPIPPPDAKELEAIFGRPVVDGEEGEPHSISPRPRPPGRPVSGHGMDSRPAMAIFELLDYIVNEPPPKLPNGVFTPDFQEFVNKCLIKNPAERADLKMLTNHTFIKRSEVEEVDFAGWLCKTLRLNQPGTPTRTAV

Row | Compound | KINOMEscan: MEK2 (panel of 442 kinases [1]) | KINOMEscan: CDKL1 (panel of 442 kinases [2]) | % Ctrl, TAOK1 (panel of 442 kinases [3]) [% Ctrl]
1 | CCOc1cc(C(=O)N2CCC(N3CCN(C)CC3)CC2)ccc1Nc1ncc2c(n1)N(C1CCCC1)c1ccccc1C(=O)N2C [Compound 26] | 89 | 86 | 79
2 | COc1cc(C(=O)N2CCC(N3CCN(C)CC3)CC2)ccc1Nc1ncc2c(n1)N(C1CCCC1)c1ccccc1C(=O)N2C [Compound 25, 11-cyclopentyl-2-((2-methoxy-4-(4-(4-methylpiperazin-1-yl)piperidine-1-carbonyl)phenyl)amino)-5-methyl-5H-benzo[e]pyrimido[5,4-b][1,4]diazepin-6(11H)-one] | 66 | 100 | 51
3 | COc1cc(C(=O)N2CCC(N3CCN(C)CC3)CC2)ccc1Nc1ncc2c(n1)N(C)c1ccccc1C(=O)N2C [15 (LRRK2-IN-1)] | 99 | 78 | 28
